From ChEMBL document CHEMBL4507273 (2021)

Experiments:
[1] = target: BDNF/NT-3 growth factors receptor (Homo sapiens) (UniProt Q16620); experiment: TrkB(h) Eurofins Kinase panel; conditions: Compound concentration 1.0 uM
[2] = target: Serine/threonine-protein kinase Chk2 (Homo sapiens) (UniProt O96017); experiment: CHK2(h) Eurofins Kinase panel; conditions: Compound concentration 1.0 uM
[3] = target: T1, Alpha-1A adrenergic receptor (Homo sapiens) (UniProt P35348); conditions: Rattus norvegicus; Compound concentration 10.0 uM
T1 sequence (whole entry): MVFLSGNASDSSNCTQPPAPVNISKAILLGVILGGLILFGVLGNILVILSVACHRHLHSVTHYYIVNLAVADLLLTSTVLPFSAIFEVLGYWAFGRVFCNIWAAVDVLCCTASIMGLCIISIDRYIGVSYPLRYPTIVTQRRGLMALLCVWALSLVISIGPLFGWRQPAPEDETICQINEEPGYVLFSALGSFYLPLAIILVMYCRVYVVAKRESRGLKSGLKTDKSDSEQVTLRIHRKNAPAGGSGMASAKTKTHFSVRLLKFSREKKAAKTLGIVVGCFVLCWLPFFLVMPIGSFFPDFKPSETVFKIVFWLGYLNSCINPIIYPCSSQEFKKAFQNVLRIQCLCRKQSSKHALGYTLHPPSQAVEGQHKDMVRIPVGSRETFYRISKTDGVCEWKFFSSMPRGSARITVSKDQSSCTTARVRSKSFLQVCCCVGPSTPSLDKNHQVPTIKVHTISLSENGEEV

[4] = target: Delta-type opioid receptor (Homo sapiens) (UniProt P41143); conditions: Compound concentration 10.0 uM
Chain of Delta-type opioid receptor (Homo sapiens) (P41143 whole entry): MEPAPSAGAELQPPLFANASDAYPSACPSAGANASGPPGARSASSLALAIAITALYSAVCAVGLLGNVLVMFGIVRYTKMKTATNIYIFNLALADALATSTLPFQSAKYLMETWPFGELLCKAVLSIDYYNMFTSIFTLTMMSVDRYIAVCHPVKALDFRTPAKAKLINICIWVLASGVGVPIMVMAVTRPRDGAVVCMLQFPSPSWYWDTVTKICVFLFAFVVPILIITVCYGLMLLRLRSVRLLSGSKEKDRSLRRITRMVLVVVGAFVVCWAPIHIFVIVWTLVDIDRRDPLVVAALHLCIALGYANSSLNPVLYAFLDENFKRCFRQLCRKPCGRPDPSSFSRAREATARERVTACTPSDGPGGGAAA

Chain of Serine/threonine-protein kinase Chk2 (Homo sapiens) (O96017 whole entry): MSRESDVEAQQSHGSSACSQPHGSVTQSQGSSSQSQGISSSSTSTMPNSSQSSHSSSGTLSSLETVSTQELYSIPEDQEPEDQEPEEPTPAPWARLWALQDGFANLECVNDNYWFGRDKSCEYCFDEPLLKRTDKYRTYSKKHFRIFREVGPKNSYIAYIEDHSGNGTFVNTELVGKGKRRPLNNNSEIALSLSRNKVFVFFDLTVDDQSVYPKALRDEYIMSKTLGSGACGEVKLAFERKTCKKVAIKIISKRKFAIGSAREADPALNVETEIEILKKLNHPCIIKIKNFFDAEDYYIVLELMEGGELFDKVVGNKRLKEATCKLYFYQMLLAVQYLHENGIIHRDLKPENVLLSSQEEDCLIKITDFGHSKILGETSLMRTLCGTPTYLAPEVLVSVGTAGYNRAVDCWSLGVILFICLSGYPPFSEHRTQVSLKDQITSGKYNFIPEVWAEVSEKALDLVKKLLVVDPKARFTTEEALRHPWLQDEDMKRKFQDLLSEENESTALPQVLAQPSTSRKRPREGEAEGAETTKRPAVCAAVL
Chain of BDNF/NT-3 growth factors receptor (Homo sapiens) (Q16620 32-822 limits assumed): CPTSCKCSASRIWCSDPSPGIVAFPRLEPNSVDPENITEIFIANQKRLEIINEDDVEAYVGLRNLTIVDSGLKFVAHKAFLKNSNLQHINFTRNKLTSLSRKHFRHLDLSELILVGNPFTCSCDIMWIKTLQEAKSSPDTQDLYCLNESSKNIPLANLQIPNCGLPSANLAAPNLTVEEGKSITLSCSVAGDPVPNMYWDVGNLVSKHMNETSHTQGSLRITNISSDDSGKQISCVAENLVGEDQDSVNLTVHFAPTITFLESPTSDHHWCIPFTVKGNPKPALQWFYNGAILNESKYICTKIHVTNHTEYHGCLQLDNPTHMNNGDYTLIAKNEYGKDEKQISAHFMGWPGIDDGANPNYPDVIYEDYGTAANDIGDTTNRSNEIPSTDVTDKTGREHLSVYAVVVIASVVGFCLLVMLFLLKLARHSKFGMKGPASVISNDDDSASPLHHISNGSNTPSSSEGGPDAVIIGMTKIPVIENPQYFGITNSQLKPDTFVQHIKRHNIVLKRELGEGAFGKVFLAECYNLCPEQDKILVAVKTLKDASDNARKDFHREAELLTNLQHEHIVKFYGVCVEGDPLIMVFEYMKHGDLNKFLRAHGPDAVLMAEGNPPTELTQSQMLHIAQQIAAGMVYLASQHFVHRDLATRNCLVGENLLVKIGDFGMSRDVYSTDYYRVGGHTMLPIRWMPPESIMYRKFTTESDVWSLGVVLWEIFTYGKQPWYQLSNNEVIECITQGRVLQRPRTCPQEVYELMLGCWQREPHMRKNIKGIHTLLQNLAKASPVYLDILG

Row | SMILES | % residual kinase activity [1] [%] | % residual kinase activity [2] [%] | inhibition [3] [%] | inhibition [4] [%]
1 | CNCc1ccccc1-c1csc([C@@H](C)Nc2nc(C)nc3cc(OC)c(OC)cc23)c1 [BAY-293] | 79 | 80 | 106 | –
2 | CNCc1ccccc1-c1csc([C@H](C)Nc2nc(C)nc3cc(OC)c(OC)cc23)c1 [BAY-294] | – | – | – | 10.5
